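Following 48 hours of exposure in 96-well plates, responses at five concentrations were used to interpolate endpoints linearly. TGI denotes the concentration required for complete inhibition of growth.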 Where only a bound is given, the exact number is not on record here.

Consider six compounds from PubChem BioAssay (NCI).

What all share (assay): NCI tumour cell line growth inhibition, 48 h
Test [1] has as its system SW-620 colon.
Test [2] has as its system NCI-H460 lung.
Test [3] relates to LOX IMVI melanoma.
For test [4], the system named is KM12 colon.
The test system of test [5] is NCI/ADR-RES ovarian.
Test [6] has as its system TK-10 renal.
For test [7], the system named is SK-OV-3 ovarian.
The subject of test [8] is UACC-257 melanoma.
Test [9] concerns HL-60(TB) leukemia.
Test [10] deals with NCI-H522 lung.
The test system of test [11] is HOP-92 NSCLC.
The subject of test [12] is 786-0 renal.
Test [13] deals with PC-3 prostate.
Test [14] deals with OVCAR-4 ovarian.
In test [15] the test system is HCT-116 colon.
For test [16], the system named is T-47D breast.
Test [17] has as its system RXF 393 renal.
For test [18], the system named is CAKI-1 renal.
Test [19] relates to OVCAR-5 ovarian.
Test [20] deals with K-562 leukemia.

Regarding `CCCCCCCCCCCCCCCCCCNc1ccn(C2OC(COP(=O)(O)OCC(COP(=O)(O)OCC3OC(n4cc(C)c(=O)[nH]c4=O)CC3N=[N+]=[N-])OCCCCCCCCCCCCCCCCCC)C(O)C2O)c(=O)n1` (stereo not given), the TGI was greater than 100 µM in test [1]; greater than 100 µM in [2]; 54.2 µM in [3]; greater than 100 µM in test [4]; greater than 100 µM in test [5]; greater than 100 µM in test [6]. In addition, the TGI in test [7] is greater than 100 µM; in test [8], greater than 100 µM; in test [9], greater than 100 µM; in test [10], 96.5 µM; in test [11], greater than 100 µM; in test [12], greater than 100 µM. Further, the TGI in test [13], in test [14], in test [15], in [16], in [17] and in test [18] was greater than 100 µM each time. Besides, the TGI in [19] and in test [20] was greater than 100 µM each time.
With `Cc1ccc(N/N=C/C2=CC(C)(C)C(C#N)(C#N)C(O)=C2C#N)cc1`, the TGI in test [1], in [2], in test [3], in test [4], in test [5] and in test [6] was greater than 100 µM throughout. Moreover, the TGI in [7] was greater than 100 µM; in test [8], greater than 100 µM; in test [9], 58.1 µM; in [10], greater than 100 µM; in [11], 42.2 µM; in test [12], greater than 100 µM. The TGI was 58.7 µM in [13]; greater than 100 µM in [14]; greater than 100 µM in test [15]; greater than 100 µM in test [16]; 85.2 µM in test [17]; 69.5 µM in test [18]. Further, the TGI in [19] and in [20] was greater than 100 µM in each case.
`C=CC(C)CCC(C/C=C(\C)CCCC(C)C)C(=C)CCCC(C)C` (stereo not given): the TGI in test [1], in [2], in test [3], in [4], in test [5] and in test [6] was greater than 100 µM in each case. In addition, the TGI in [7], in test [8], in [9], in test [10], in test [11] and in [12] was greater than 100 µM throughout. Besides, the TGI in test [13], in test [14], in test [15], in test [16], in test [17] and in [18] was greater than 100 µM throughout. The TGI in test [19] and in [20] was greater than 100 µM each time.
For `SCc1ccc(-c2ccc(CS)cc2)cc1`, the TGI in test [1] was 60 µM; in test [2] it was 25.1 µM; in [3] it was 15 µM; in test [4], 10.1 µM; in test [5], 32.3 µM; in test [6] it was greater than 61.3 µM. For the same compound, the TGI was 33.2 µM in [7]; 45.2 µM in test [8]; 12.4 µM in test [9]; 37.7 µM in test [10]; 40.8 µM in test [11]; 59.5 µM in test [12]. Further, the TGI came out at 34 µM in test [13]; 17.5 µM in test [14]; 17.8 µM in test [15]; 41.6 µM in test [16]; 32.9 µM in [17]; 18.5 µM in test [18]. Also, the TGI in test [19] was determined as 27 µM; in test [20] it was 26.9 µM.
As to `c1cc2c(cc1NC1=NCCO1)CCCC2`, the TGI in test [1] came out at 47.3 µM; in test [2], 15.7 µM; in test [3] it was 11.1 µM; in test [4] it was 10.5 µM; in test [5], 8.84 µM; in test [6] it was 52.5 µM. The TGI in test [7] is 27.1 µM; in test [8], greater than 28.1 µM; in test [9], 7.5 µM; in test [10] it was 18 µM; in test [11], 19.3 µM; in [12] it was 16.7 µM. Further, the TGI in test [13] was 15.5 µM; in test [14], 71.2 µM; in test [15] it was 16 µM; in [16] it was greater than 88.7 µM; in test [17], 14.2 µM; in [18], greater than 88.1 µM. Besides, the figures for the TGI in test [19] and in [20] were 39.7 µM and greater than 24.5 µM, respectively.
Regarding `O=P1(N(CCCl)CCCl)Oc2c(Cl)cc(Cl)c(Cl)c2Cc2c(Cl)c(Cl)cc(Cl)c2O1`, the TGI in test [1], in [2], in [3], in test [4], in [5] and in test [6] was greater than 100 µM in each case. Further, the TGI is greater than 100 µM in test [7]; greater than 100 µM in test [8]; greater than 100 µM in test [9]; greater than 100 µM in test [10]; 66.5 µM in test [11]; greater than 100 µM in [12]. For the same compound, the TGI in test [13], in test [14], in test [15], in [16], in test [17] and in test [18] was greater than 100 µM each time. Besides, the TGI in test [19] and in [20] was greater than 100 µM each time.
